Values joined by “and” are separate entries in the source; they are usually repeats but may differ in a detail not shown here. Identical values can stand only once. Like-named read-outs stand apart in the source and are kept apart here.
What was measured:
CDK1 = CDK1 (Homo sapiens, UniProt P06493); assay: Biochemical CDK1 inhibition assay
Procedure: (§1) The assays used for determining the properties of the kinase inhibitors were performed in accordance with standard procedures well known to those skilled in the art. For example, assays for determining inhibitory activity on CDKs or in cellular assays are described in WO 00/218962, WO 2005/026129, and WO 2005/063765. Solubility assays at pH 7.4 were essentially performed as described by Avdeef, A. in Pharmacokinetic Optimization in Drug Research; Testa, B.; van de Waterbeemd, H.; Folkers, G.; Guy, R. Eds.; Wiley-VHC: Zurich, 2001; pp 305-326. PAMPA permeability assays at pH 7.4 were essentially performed as described in Kansy et al., J. Med. Chem. 41: 1007-10, 1998.

[1] = test system: human A2780 ovarian tumor cells
Procedure: Compound P (as hydrochloric acid salt) was formulated in 30% PEG300/70% water, and Compound I (as hydrochloric acid salt) was formulated in 20% PEG300/80% D5W (5% dextrose water) and administered by oral gavage twice every day for 10 days (bid×10), while the Cytoxan control which was administered i.p. in saline every two days over a period of 10 days (q2 d×5): […]

CDK9 = CDK9 (Homo sapiens, UniProt P50750); assay: Biochemical CDK9 inhibition assay; settings: read-out: enzymatic IC50 of CDK9 activity
CDK9, sequence (P50750 whole entry): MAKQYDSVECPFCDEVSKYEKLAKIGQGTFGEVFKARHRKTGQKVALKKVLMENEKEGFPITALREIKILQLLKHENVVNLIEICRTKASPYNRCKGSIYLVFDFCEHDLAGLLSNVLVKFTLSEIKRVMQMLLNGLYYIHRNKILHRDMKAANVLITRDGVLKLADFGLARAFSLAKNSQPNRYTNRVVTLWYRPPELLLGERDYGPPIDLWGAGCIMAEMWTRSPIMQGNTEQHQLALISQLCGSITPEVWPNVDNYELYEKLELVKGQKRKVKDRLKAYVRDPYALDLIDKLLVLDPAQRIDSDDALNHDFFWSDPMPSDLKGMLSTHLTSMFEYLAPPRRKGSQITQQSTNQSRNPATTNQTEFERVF
CDK9, sequence (O60563 whole entry partner): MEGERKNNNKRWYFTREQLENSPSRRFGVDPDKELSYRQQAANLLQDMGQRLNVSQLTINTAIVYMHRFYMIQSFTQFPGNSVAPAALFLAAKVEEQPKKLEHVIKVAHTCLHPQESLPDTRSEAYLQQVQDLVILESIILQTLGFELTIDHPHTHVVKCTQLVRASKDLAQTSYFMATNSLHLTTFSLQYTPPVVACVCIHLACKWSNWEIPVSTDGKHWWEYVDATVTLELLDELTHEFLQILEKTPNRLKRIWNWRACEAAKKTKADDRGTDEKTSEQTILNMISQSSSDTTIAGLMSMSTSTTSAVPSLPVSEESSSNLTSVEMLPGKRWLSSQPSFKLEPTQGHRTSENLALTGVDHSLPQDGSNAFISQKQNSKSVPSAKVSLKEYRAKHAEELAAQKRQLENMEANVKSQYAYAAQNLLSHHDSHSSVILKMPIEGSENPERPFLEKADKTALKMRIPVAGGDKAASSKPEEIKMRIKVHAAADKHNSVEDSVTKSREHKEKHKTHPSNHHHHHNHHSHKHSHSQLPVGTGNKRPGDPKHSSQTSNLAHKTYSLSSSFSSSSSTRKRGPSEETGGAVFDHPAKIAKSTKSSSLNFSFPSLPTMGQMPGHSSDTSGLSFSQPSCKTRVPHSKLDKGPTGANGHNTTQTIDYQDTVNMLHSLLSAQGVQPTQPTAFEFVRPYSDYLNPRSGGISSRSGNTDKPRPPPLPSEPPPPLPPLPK
Procedure: as §1

MDA-MB-468 = assay: Cell proliferation, MDA-MB-468; assay type: cell-based; settings: Homo sapiens
Procedure: as §1
(§2) When compared to IC50s of cellular proliferation by compound I, (as determined by the methods described earlier), the corresponding IC50 for cellular inhibition of CDK9-dependent RNAPII phosphorylation is approximately similar.

panel of non-CDK kinases = assay: Inhibitory activity against a panel of non-CDK kinases; assay type: biochemical
Procedure: as §1

H460 NSCLC = settings: H460; for Max % TGI (d): day 13
Procedure: Xenograft Tumor-Models: 100 athymic nu/nu female mice (6-8 weeks old) from CRL were allowed to acclimate for 4 days. […] The 3rd passage of cells with approximate 90% confluence was used for these experiments. Briefly, on Day 0, mice were inoculated with 0.1 ml (total 5×10^6 cells) of the respective cell-type as a cell suspension (50×10^6 cells/ml) by subcutaneous injection into the fat pad area near the mammary gland under light anesthesia. When the average tumor weight in all mice reached over 100 mg (day 10), 80 animals with an average tumor size of 130 mg were selected and were randomly divided into 8 groups.
A 20 G gavage needle was used for the oral treatment.
Tumor growth and body weight were monitored and recorded three times a week. Tumors were measured by determining the length and width of the tumor with a digital caliper. Tumor weight was estimated using the following formula: Tumor Weight (mg)=(w^2×1)×0.52 where w=width and l=length in mm of the tumor.
Experimental treatment may cause partial regression (PR) or complete regression (CR) of tumors. PR is defined when the tumor size is 50% or less than the starting (day 1) size but greater than 0.0 mg for three consecutive measurements during the course of the study. CR occurs when there is no measurable tumor mass for three consecutive measurements. Cures are defined when CR are maintained until the completion of the experiment.
Mice were sacrificed when their tumors reached the 1000 mm^3 endpoint volume. Treatment efficacy was determined as Log Cell Kill (LCK).
Toxic deaths are defined as deaths caused by compound treatment and not by advanced disease state. […] Non-tumor related deaths after this point are recorded, but not considered toxic deaths.
Briefly, the empirical distributions of T and Td were derived from B=1000 realisations of random selection of n individual animals with replacement from the set i=1, . . . , n of the appropriate group of mice containing n evaluable animals, estimating the mean tumor size for such selection of animals for each time-point, and linear regression analysis from a semi-log plot of such averages against time. Dead mice and mice with no measurable tumor size were treated as missing data and were ignored when calculating the average.

Colo205 = assay: Cell proliferation, Colo205; assay type: cell-based; settings: Homo sapiens, COLO 205
Procedure: as §1, §2

CDK1, sequence (P06493 whole entry): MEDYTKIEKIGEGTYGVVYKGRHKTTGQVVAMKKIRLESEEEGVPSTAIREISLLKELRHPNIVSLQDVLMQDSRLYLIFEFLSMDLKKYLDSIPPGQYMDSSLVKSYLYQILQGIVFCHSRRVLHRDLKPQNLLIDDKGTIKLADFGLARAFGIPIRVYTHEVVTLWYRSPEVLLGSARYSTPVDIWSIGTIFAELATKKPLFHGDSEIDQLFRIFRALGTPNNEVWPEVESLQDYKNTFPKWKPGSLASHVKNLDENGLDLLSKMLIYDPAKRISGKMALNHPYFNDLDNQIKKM
CDK1, sequence (P14635 whole entry partner): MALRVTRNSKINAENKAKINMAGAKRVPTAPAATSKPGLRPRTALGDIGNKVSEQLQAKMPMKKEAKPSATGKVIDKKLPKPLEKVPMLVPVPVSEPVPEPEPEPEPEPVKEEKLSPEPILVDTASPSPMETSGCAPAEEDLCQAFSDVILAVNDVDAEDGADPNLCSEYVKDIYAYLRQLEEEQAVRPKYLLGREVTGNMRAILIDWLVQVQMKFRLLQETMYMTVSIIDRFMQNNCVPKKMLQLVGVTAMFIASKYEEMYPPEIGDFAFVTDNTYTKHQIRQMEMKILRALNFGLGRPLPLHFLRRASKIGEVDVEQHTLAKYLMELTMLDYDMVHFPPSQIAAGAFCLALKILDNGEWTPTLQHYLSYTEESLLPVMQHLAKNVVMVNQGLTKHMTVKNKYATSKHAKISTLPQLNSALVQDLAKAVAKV

CC(C)c1nn(-c2c(Cl)cncc2Cl)c2nc(Cc3ccc(CN4CCCC4)c(O)c3)[nH]c(=O)c12 [Compound I, 1-(3,5-dichloropyridin-4-yl)-6-(3-hydroxy-4-pyrrolidinomethyl-phenyl)methyl-3-isopropyl-pyrazolo[3,4-d]pyrimidin-4-one]
IC50 (CDK1): 10 to 50 nM | Toxic Mortality ([1]; 15 [14] mg/kg po bidx10, N=10): 0 | Max % TGI (d) ([1]; 15 [14] mg/kg po bidx10, day 10): 47 (10) % | Max % BW Loss (d) ([1]; 15 [14 free base] mg/kg po bidx10, HCl salt, day 6): 0 (6) % | LCK ± CI (95%) (Td: 2.1 d) ([1]; 32 [30] mg/kg po bidx10): 1.72 ± 0.89 and 1.72 | Toxic Mortality ([1]; 32 [30] mg/kg po bidx10, N=10): 0 | Max % TGI (d) ([1]; 32 [30] mg/kg po bidx10, day 13): 81 (13) % | Max % BW Loss (d) ([1]; 32 [30] mg/kg po bidx10, day 15): 4.8 (15) % | LCK ± CI (95%) (Td: 2.1 d) ([1]; 48 [45] mg/kg po bidx10): 3.38 ± 0.81 and 3.38 | Cure ([1]; 48 [45] mg/kg po bidx10, N=10): 3 | Toxic Mortality ([1]; 48 [45] mg/kg po bidx10, N=10): 0 | Max % TGI (d) ([1]; 48 [45] mg/kg po bidx10, day 13): 97 (13) % | Max % BW Loss (d) ([1]; 48 [45] mg/kg po bidx10, day 15): 15.9 (15) % | CR ([1]; 48 [45] mg/kg po bidx10, mice with complete regression, N=10): 1 | PR ([1]; 48 [45] mg/kg po bidx10, mice with partial regression, N=10): 5 | IC50 (CDK9): 1 to 10 nM | IC50 (MDA-MB-468): ~0.3 µM | inhibitory activity against non-CDK kinases (panel of non-CDK kinases): low inhibitory activity | Toxic Mortality (H460 NSCLC; 32 [30] mg/kg po qdx10, N=10): 0 | Max % TGI (d) (H460 NSCLC; 32 [30] mg/kg po qdx10): 30.7 (13) % | LCK ± CI (95%) (Td: 2.6 d) (H460 NSCLC; 63 [59] mg/kg po qdx10): 0.48 ± 0.15 and 0.48 | Toxic Mortality (H460 NSCLC; 63 [59] mg/kg po qdx10, N=10): 0 | Max % TGI (d) (H460 NSCLC; 63 [59] mg/kg po qdx10): 43.1 (13) % | LCK ± CI (95%) (Td: 2.6 d) (H460 NSCLC; 95 [89] mg/kg po qdx10): 0.97 ± 0.25 and 0.97 | Toxic Mortality (H460 NSCLC; 95 [89] mg/kg po qdx10): 2/10 | Max % TGI (d) (H460 NSCLC; 95 [89] mg/kg po qdx10): 57.1 (13) % | IC50 (Colo205): ~0.1 µM

Source: patent publication US8304418B2, “Pyrazolopyrimidinone kinase inhibitor” (Agennix AG, priority 2007, dated 2012)
